Measured values: paper PMC4336331, “Novel Receptor-Derived Cyclopeptides to Treat Heart Failure Caused by Anti-β1-Adrenoceptor Antibodies in a Human-Analogous Rat Model” (PLoS ONE, 2015)
Read-outs that look alike come from different tables or passages of the source. Peptide text beside a SMILES is read from it.

Key:
[1] = tested on: anti-β1EC2-induced heart failure (β1EC2/GST-FP-immunised rats); experiment: Left heart catheterisation (haemodynamics), prevention-study; format: in vivo, Lewis/CrlBR rats; details: LV catheterisation month 16, mean ±SEM
Procedure: (§1) In brief, n = 76 two months old Lewis/CrlBR rats were either s.c. immunised with 50 μg β1EC2/GST-FP, or n = 38 rats were control-injected with 0.9% NaCl (t = 0). To maintain high anti-β1EC2-titers, all immunised rats were boosted with β1EC2/GST-FP (or 0.9% NaCl) every month over 20 months as previously described. Application of the different linear or cyclic β1-AR peptides (corresponding to the primary AA-sequence of either the first (β1EC1) or the 2nd extra-cellular β1-AR loop (β1EC2)) or the β1-receptor blocker bisoprolol was initiated either 6 weeks after the 1st immunisation (i.e. 15 days after the 1st boost, prevention-study), or 8.5 months after the 1st immunisation (therapy-study).

[2] = tested on: anti-β1EC2-induced heart failure (β1EC2/GST-FP-immunised rats); experiment: Relative organ wet weights and body weight, therapy-study; details: immunised anti-β1EC2-positive rats, from 8.5 months after 1st immunisation peptides 1.0 mg/kg i.v. every 4 weeks, bisoprolol 15 mg/kg/day orally, over 12 months, month 20, mean ±SEM
Procedure: as §1
(§2) After the hearts all other relevant inner organs (e.g., lung, liver, spleen, kidneys, brain, and eyes) were removed, rinsed with ice-cold PBS, weighed, sectioned, and fixed for further histologic analysis.

[3] = tested on: anti-β1EC2-induced heart failure (β1EC2/GST-FP-immunised rats); experiment: Left heart catheterisation (haemodynamics), therapy-study; format: in vivo, Lewis/CrlBR rats; details: LV catheterisation month 20, mean ±SEM
Procedure: as §1

[4] = tested on: anti-β1EC2-induced heart failure (β1EC2/GST-FP-immunised rats); details: therapy-study, end of study, mean ±SEM
Procedure: as §1
From paraffin-embedded heart preparations cavity- and wall-dimensions were determined by computer-aided analysis of H&E-stained mid-ventricular 2μm-sections as previously described. H&E-stained paraffin-sections also served to quantify damaged and fibrotic cardiac areas (scars). For detection of mast cells, deparaffinised cardiac sections were stained with acidified (pH<2.5) toluidine blue 0.1% (Sigma). The number of toluidine-positive cells was normalized to square millimeter of cardiac tissue. TUNEL-positive cells were quantified in 2μm mid-ventricular paraffin-sections using a TMR Red in Situ Death Detection Kit (Roche, Basel, Switzerland). Only the total number of TUNEL-postive cells/section was determined without further differentiation of the specific apoptotic cell type (e.g., fibroblasts, endothelial cells, cardiomyocytes).

anti-β1EC2-antibodies = experiment: Free anti-β1EC2-titers by ELISA, therapy-study; format: in vivo, Lewis/CrlBR rats; details: peptides 1.0 mg/kg/month i.v., bisoprolol 15 mg/kg/day orally (S1 Fig., Fig. 2F)
Procedure: as §1
(TIF) Click here for additional data file.

[5] = tested on: brain, liver, heart, kidney, eye, and spleen; experiment: Histologic analysis of organs for treatment-related pathologies; details: rat, in vivo
Source text: as §2
Supplementary file pone.0117589.s003.tif: S3 Fig Histologic analysis of various organs (therapy-study, mono-treatment). Representative H&E-stained 2μm cross-sections from various organs analyzed for treatment-related pathologies. Panels (from top to bottom) show organs analyzed from immunised anti-β1EC2-positive untreated, β1EC2-CP-treated, or bisoprolol-treated rats. […] (TIF) Click here for additional data file.

[6] = tested on: anti-β1EC2-induced heart failure (β1EC2/GST-FP-immunised rats); experiment: Echocardiography and catheterisation, cardiomyopathic phenotype, therapy-study; format: in vivo, Lewis/CrlBR rats; details: echocardiography and catheterisation (Fig. 2G, H; S2 Fig.)
Procedure: as §1
(§3) In brief, the rats were lightly anaestetised (30 mg/kg ketamine-HCl and 5 mg/kg xylazine i.p.), shaved (chest), and placed supine on a special table. M-mode tracings were recorded at baseline (before immunisation), and subsequently every four months in the parasternal long and short axis views according to the guidelines of the American Society for Echocardiography. Pulsed-wave Doppler spectra were recorded from the apical five-chamber view and the velocity-time integral (VTI) of the transaortic flow served to calculate cardiac output (CO [ml/min] = Aortic VTI x (π [LV-outflow tract diameter/2]^2) x bpm).

[7] = tested on: anti-β1EC2-induced heart failure (β1EC2/GST-FP-immunised rats); experiment: Echocardiography, catheterisation and histomorphology, prevention-study; format: in vivo, Lewis/CrlBR rats; details: cardiac catheterisation, histomorphology
Procedure: as §1, §3

[8] = immunised anti-β1EC2-positive rats, from 6 weeks after 1st immunisation EC2-CP 1.0 mg/kg i.v. every 4 weeks or bisoprolol 15 mg/kg/day orally over 12 months
[9] = non-immunised 0.9% NaCl-injected rats, EC2-CP 1.0 mg/kg i.v. every 4 weeks or bisoprolol 15 mg/kg/day orally over 12 months
[10] = immunised anti-β1EC2-positive rats, from 8.5 months after 1st immunisation peptides 1.0 mg/kg i.v. every 4 weeks, bisoprolol 15 mg/kg/day orally, over 12 months

With `CC(C)NCC(O)COc1ccc(COCCOC(C)C)cc1` (centres unmarked) [bisoprolol, reference compound] the “+dP/dt (contractilility)” value [1, 8] was 6768 ±106 mmHg/s, the “-dP/dt (relaxation)” value [1, 8] was 5532 ±78 mmHg/s and the “HF (heart frequence)” value [1, 8] was 178 ±9 bpm. The “LVEDP (LV end-diastolic pressure)” value [1, 8] was 8.3 ±0.6 mmHg, the “LVSP (maximal systolic LV-pressure)” value [1, 8] was 106 ±3 mmHg and the “+dP/dt (contractilility)” value [1, 9] was 7012 ±419 mmHg/s. For the same compound, the “-dP/dt (relaxation)” value [1, 9] was 5619 ±155 mmHg/s, the “HF (heart frequence)” value [1, 9] was 173 ±17 bpm and the “LVEDP (LV end-diastolic pressure)” value [1, 9] was 10.6 ±1.5 mmHg. For the same compound, the “LVSP (maximal systolic LV-pressure)” value [1, 9] was 107 ±11 mmHg, the “Heart, relative (wet) weight” value [2] was 2.93 ± 0.11 mg/g and the “Liver, relative (wet) weight” value [2] was 21.61 ± 1.47 mg/g. The “Lung, relative (wet) weight” value [2] was 2.88 ± 0.10 mg/g, the “+dP/dt (contractilility)” value [3, 10] was 5697 ± 231 mmHg/s and the “-dP/dt (relaxation)” value [3, 10] was 4238 ± 117 mmHg/s. For the same compound, the “HF (heart frequence)” value [3, 10] was 173 ± 3 bpm, the “LVEDP (LV end-diastolic pressure)” value [3, 10] was 10.9 ± 1.3 mmHg and the “LVSP (maximal systolic LV-pressure)” value [3, 10] was 108 ± 2 mmHg. The “+dP/dt (contractilility)” value [3, 9] was 6018 ±308 mmHg/s, the “-dP/dt (relaxation)” value [3, 9] was 4646 ± 295 mmHg/s and the “HF (heart frequence)” value [3, 9] was 168 ± 6 bpm. For the same compound, the “LVEDP (LV end-diastolic pressure)” value [3, 9] was 9.7 ± 0.9 mmHg, the “LVSP (maximal systolic LV-pressure)” value [3, 9] was 104 ± 4 mmHg and the “IVS (thickness of the inter-ventricular septum)” value (“IVS” below) [4, 10] was 1.7 ±0.1 mm. The “LVA (total LV-area)” value [4, 10] was 61.9 ±5.2 mm2, the “LVCA (LV-cavity area)” value [4, 10] was 26.8 ±1.0 mm2 and the “LVWA (LV wall area)” value [4, 10] was 35.0 ±4.5 mm2. For the same compound, the “PW (posterior wall thickness)” value [4, 10] was 1.5 ±0.1 mm, the “IVS” value [4, 9] was 1.8 ±0.1 mm and the “LVA (total LV-area)” value [4, 9] was 58.4 ±0.7 mm2. The “LVCA (LV-cavity area)” value [4, 9] was 22.6 ±0.2 mm2, the “LVCA / LVA %” value [4, 9] was 38.7 ±0.5% and the “LVWA (LV wall area)” value [4, 9] was 35.8 ±0.5 mm2. For the same compound, the “PW (posterior wall thickness)” value [4, 9] was 1.8 ±0.1 mm, the “effect on anti-β1EC2-titers, in words” value (anti-β1EC2-antibodies) was “no effect” and the “treatment-related organ pathologies / organ-toxicity, in words” value [5] was “Neither treatment strategy caused detectable organ-specific toxicity”. The “cardiomyopathic phenotype, in words” value [6] was “only stopped further disease-progression” and the “development of cardiomyopathy and heart failure, in words” value [7] was “able to prevent development of cardiomyopathy and heart failure”.
For `CC(C)[C@H](NC(=O)[C@H](Cc1ccccc1)NC(=O)[C@H](CC(=O)O)NC(=O)[C@H](CS)NC(=O)[C@H](CS)NC(=O)[C@H](CCCCN)NC(=O)[C@@H]1CCCN1C(=O)[C@H](CC(=O)O)NC(=O)[C@H](CC(N)=O)NC(=O)[C@H](Cc1ccc(O)cc1)NC(=O)[C@H](CS)NC(=O)[C@H](CCCNC(=N)N)NC(=O)[C@H](CCCNC(=N)N)NC(=O)[C@H](C)NC(=O)[C@H](CCC(=O)O)NC(=O)[C@H](CC(=O)O)NC(=O)[C@H](CO)NC(=O)[C@H](CCC(=O)O)NC(=O)[C@H](C)NC(=O)[C@H](CCCNC(=N)N)NC(=O)[C@H](C)N)C(=O)N[C@H](C(=O)N[C@@H](CC(N)=O)C(=O)N[C@@H](CCCNC(=N)N)C(=O)NCC(N)=O)[C@@H](C)O` [β1EC2-Lin] (H-ARAESDEARRCYNDPKCCDFVTNRG-NH2; N-terminus and C-terminus assumed), the “Heart, relative (wet) weight” value [2] was 2.88 ± 0.24 mg/g, the “Kidney L, relative (wet) weight” value [2] was 2.32 ± 0.14 mg/g and the “Kidney R, relative (wet) weight” value [2] was 2.36 ± 0.20 mg/g. The “Liver, relative (wet) weight” value [2] was 22.64 ± 0.59 mg/g, the “Lung, relative (wet) weight” value [2] was 2.77 ± 0.12 mg/g and the “Spleen, relative (wet) weight” value [2] was 1.49 ± 0.09 mg/g. The “Weight (body weight)” value [2] was 598 ± 38 g, the “-dP/dt (relaxation)” value [3, 10] was 4857 ±157 mmHg/s and the “HF (heart frequence)” value [3, 10] was 210 ±6 bpm. The “LVEDP (LV end-diastolic pressure)” value [3, 10] was 14.5 ±1.2 mmHg, the “LVSP (maximal systolic LV-pressure)” value [3, 10] was 116 ±4 mmHg and the “IVS” value [4, 10] was 1.5 ±0.1 mm. The “LVA (total LV-area)” value [4, 10] was 71.2 ±3.5 mm2, the “LVCA (LV-cavity area)” value [4, 10] was 32.7 ±1.3 mm2 and the “LVWA (LV wall area)” value [4, 10] was 38.5 ±2.4 mm2. For the same compound, the “PW (posterior wall thickness)” value [4, 10] was 1.6 ±0.1 mm, the “effect on anti-β1EC2-titers, in words” value (anti-β1EC2-antibodies) was “only negligible effects” and the “cardiomyopathic phenotype, in words” value [6] was “failed to elicit any cardiopotective effects”.
